How the values were obtained:
Format in all cases: in vivo, mouse
[1] = system: Lmna^H222P/H222P mice; assay: Echocardiography and heart size in treated Lmna H222P/H222P mice
Method: (§1) Mice were bred in an accredited animal facility (accreditation number: C-75-13-08). All experiments on mice were approved by the Comité d'éthique en expérimentation animate Charles Darwin No 5. Mice Lmna^H222P/H222P were backcrossed 8 times to 129S2/SvPasOrlRj strain mice to obtain pure genetic background. Male mice used for the studies were maintained under a 12 h light/12 h dark cycle at constant temperature (23° C.) with free access to food and water. Nicotinamide riboside (NR) complementation: Animals at 17 weeks of age were fed for 9 weeks with either a chow diet (A04: Scientific Animal Food & Engineering) or a chow diet complemented with 0.25% of NR (kindly provided by ChromaDex, Inc. California) corresponding to a dose of 400 mg/kg/day for a mouse weighing 25 g eating 4 g of food per day. Nicotinamide (NAM) treatment: Animals at 17 weeks of age were injected intraperitoneally (IP) every two days (q.a.d.) for 9 weeks with either physiologic serum or physiologic serum added with NAM at 50 mg/ml corresponding to a dose of 500 mg/kg for a mouse weighing 25 g.
Mouse transthoracic echocardiography was performed using an ACUSON 128XP/10 ultrasound with a 11 Mhz linear probe (Mountain View).MHz transducer applied to the chest wall. Mice were maintained under anesthetized with 0.75% isoflurane anaesthesia (0.75% in O2) and placed on a heating pad (25° C.). Left ventricular (LV) parameters were obtained from M-mode recordings in a modified short axis view. The intra ventricular septum (IVS), LV posterior wall (LVPW), LV diameter (LVD) in diastole and systole, the percentage of fractional shortening (FS) and the heart rate (HR) were measured from the mean of at least three separate cardiac cycles. A “blinded” echocardiographer, unaware of the genotype and the treatment, performed the examinations.

[2] = system: SRF^HKO mice; assay: Myocardial NAD+ levels in SRF HKO mice (NAD recycling assay)
From the text: Transgenic mice. All experiments with animals conformed to the Directive 2010/63/EU of the European Parliament and were approved by the ethics committee Charles Darvin #5 (agreement 00369.01). SRF^HKO mice bear the tamoxifen-inducible α-MHC-MerCrMer transgene and the Siffloxed allele (Sf/Sf) as described previously (Parlakian et al. (2005). Temporally controlled onset of dilated cardiomyopathy through disruption of the SRF gene in adult heart. Journal 112, 2930-2939; Tritsch et al. (2013). An SRF/miR-1 axis regulates NCX1 and Annexin A5 protein levels in the normal and failing heart. Journal 98, 372-380). Transgenic mice have been bred for more than 20 generations in C57BL/6N background. The mice were housed in standard animal facility (CEF. Hôpital Pitié Salpétrière, agreement A-75-13-15, 75013 Paris), under a 12-h dark/light cycle. Tamoxifen (Sigma T5648) was administrated by i.p. injection at a dose of 0.7 mg diluted in 100 μl peanut oil at day (D) 0, D1 and D2. […]
Tissue frozen powder was resuspended in 75% ethanol, 25% HEPES 10 mM pH 7.1, buffer (20 μl/mg of tissue). […] After adjustment of dilution factors, NADH levels were calculated by substracting the NAD^+ concentration to the non-heated ethanolic extract values: NADH=NADt (non heated)−NAD^+ (heated).
For both types of extracts (buffered ethanol or HClO4) we added 100 μL of reaction buffer (600 mM ethanol, 0.5 mM 3-(4.5-dimethylthiazol-2-yl)-2.5-diphenyltetrazolium bromide (MTT), 2 mM phenazine ethosulfate (PES), 120 mM Bicine (pH 7.8), yeast alcohol dehydrogenase (SIGMA A3263>300 u/mg.) 0.05 mg/ml. Kinetics of the reaction (OD at 550 nm, every 30 seconds for 40 minutes) was followed on a TECAN Infinite F500 microplate reader. NAD was quantified in duplicates for each sample by comparison to a range of standard NAD^+ concentration using linear regression curve equation method between NAD^+ standard concentrations and the slope of the reaction in OD units/sec. […] Cell extracts were quantified for protein concentration determined by Bradford assay.

[3] = system: Lmna^WT/WT mice; assay: Echocardiography in NR-diet wild type mice; conditions: whatever the diet and the course of the treatment
Method: as §1, with “Nicotinamide (NAM) treatment: Animals at 17 weeks of age were injected intraperitoneally (IP) every two days (q.a.d.) for 9 weeks with either physiologic serum or physiologic serum added with NAM at 50 mg/ml corresponding to a dose of 500 mg/kg for a mouse weighing 25 g.” left out
Mouse transthoracic echocardiography was performed using an ACUSON 128XP/10 ultrasound with a 11 Mhz linear probe (Mountain View).MHz transducer applied to the chest wall. […] The intra ventricular septum (IVS), LV posterior wall (LVPW), LV diameter (LVD) in diastole and systole, the percentage of fractional shortening (FS) and the heart rate (HR) were measured from the mean of at least three separate cardiac cycles. […]

[4] = system: Lmna^H222P/H222P mice; assay: qPCR of cardiac remodeling markers Myh7, Nppa, Col1a2 in heart; conditions: NR diet 9 weeks vs chow-diet
Method: as §1
Total RNAs were extracted from around 5 mg of mouse heart using RNeasy Mini kit (Qiagen). RNAs integrity were controlled on the Bioanalyzer 2100 (Agilent). […] Relative mRNA transcript levels calculated using the 2^ΔCT method were normalized by comparison to housekeeping mRNA.

[5] = NR diet 400 mg/kg/day vs chow-diet, echocardiography after 4 and 9 weeks

NC(=O)c1ccc[n+]([C@@H]2O[C@H](CO)[C@@H](O)[C@H]2O)c1 [NR, nicotinamide riboside]
left-ventricular end diastolic diameter (LVDd) [1, 5]: significantly decreased
left-ventricular end systolic diameter (LVDs) [1, 5]: significantly decreased
left-ventricular fractional shortening (FS) ([1]; NR diet 400 mg/kg/day vs chow-diet, starting as early as four weeks of treatment): increased
overall heart size ([1]; NR diet vs chow-diet): reduced
myocardial NAD ([2]; NR-enriched food (0.22%) from D5 to D50): protected against the drop in NAD
myocardial NAD+ levels ([2]; NR-supplemented diet for 2 weeks from D5 to D20): rescued
myocardial NAD+ levels ([2]; i.p. daily 1 μmole/g body weight from D8 to D15 after SRF inactivation): preserved
cardiac structure and function by echocardiography [3]: No difference
expression of Myh7, Nppa and Col1a2 (markers of cardiac remodeling) [4]: significant lowering
